Values of other authors in US20250313903A1, “NEOANTIGEN IMMUNOTHERAPY” (Gradalis, Inc., priority 2023, published 2025).
Read-outs that look alike come from different tables or passages of the source.

Assays:
[1] = test system: primary advanced or recurrent dMMR or MSI-H endometrial cancer; conditions: dostarlimab-gxly vs. placebo + carboplatin-paclitaxel
[2] = test system: advanced metastatic non-small cell lung cancer (NSCLC); conditions: one patient, EGFR exon 19 deletion; ongoing greater than 1 year
[3] = test system: relapsed/refractory metastatic squamous cell cancer of head and neck; conditions: second-line
[4] = test system: small-cell lung cancer (SCLC)
[5] = test system: metastatic melanoma; conditions: previously untreated, wild-type BRAF (CheckMate-067 and CheckMate-069)
[6] = test system: non-small cell lung cancer (NSCLC); conditions: progressed after platinum-doublet chemotherapy
[7] = test system: persistent/recurrent cervical cancer; conditions: in vivo
[8] = test system: persistent/recurrent cervical cancer; conditions: in vivo; remark: listed apart in the source
[9] = test system: MSI-H/dMMR tumors; conditions: in vivo
[10] = test system: lymph-node positive or metastatic melanoma after complete resection; conditions: adjuvant
[11] = test system: metastatic melanoma progressed after anti-CTLA-4 therapy; conditions: in vivo
[12] = test system: advanced renal cell cancer; conditions: in vivo
[13] = in vivo
[14] = test system: ovarian cancer

Dostarlimab-gxly: anti-PD-1 checkpoint inhibitor
median PFS [1]: Median PFS: 30.3 months

Nivolumab: fully humanized IgG4 antibody targeting PD-1
response (in words) [2]: durable partial response
OS [3]: 7.5 months
24-months OS rate ([4]; in vivo): 17.9%
median OS ([4]; in vivo): 4.7 months
response rate ([4]; progressed on platinum and at least one other line): 11.6%
response rate [5]: 40%
ORR [6]: 19-20%
median OS [6]: 9.2-12.2 months
median PFS [6]: 2.3-3.5 months
6-months OS [7]: 6-months OS: 78%
6-months PFS [7]: 6-months PFS: 16%;
median duration of SD [7]: SD: 5.7 months
ORR [8]: ORR: 26.3%
median OS [8]: Median OS: 21.9 months
ORR [9]: 31%
12-month RFS [10]: 70.5%
response rate [11]: 32%
OS [12]: 25.0 months

bevacizumab: VEGF inhibitor
patients developing Grade 3/4 product related adverse events [13]: over 65%
survival ([14]; BRCA-m and HRD pattern disease): 62.6 months
survival ([14]; patients with HRP tumors): 43.4 months
